Assay results published in patent US6369057B1, “Quinoxalines, processes for their preparation and their use” (Aventis Pharma Deutschland GmbH, priority 1991, dated 2002).
≈ marks a conversion by molar mass, not a printed value.

Test system: HIV
Assay: Test of preparations against HIV in cell culture (T-cell culture assay)
Format: cell-based
Details: Human immunodeficiency virus 1, 72 h; lowest concentration where no giant cells were observed; HIV-infected lymphocytes from donor blood, 3 days at 37° C.
Procedure: Test of Preparations Against HIV in Cell Culture
Complete medium additionally contains 20% fetal calf serum and 40 IU/ml recombinant interleukin 2.
Lymphocytes which have been isolated from fresh donor blood by means of Ficoll gradient centrifugation are cultured for 36 hours in complete medium with an addition of 2 μg/ml phytohemagglutinin (Wellcome) at 37° C. under 5% of CO2. After 10% of DMSO has been added, the cells are frozen at a density of 5 [formula]10^6 and stored in liquid nitrogen. For the test, the cells are defrosted, washed in RPMI medium and cultured for 3-4 days in the complete medium.
The test preparations were dissolved in DMSO at a concentration of 16.7 mg/ml and diluted in complete medium to 1 mg/ml.
0.4 ml of medium was introduced into 24-multiwell dishes. 0.1 ml of the dissolved preparation was added to the upper row of the dish, and, by transferring 0.1 ml portions, a geometric dilution series was established. Controls without preparation always contained 0.4 ml of complete medium containing 0.5% of DMSO. Lymphocyte cultures with a cell density of 5 [formula]10^5 cells/ml were infected by adding 1/50 volume supernatant from HIV-infected lymphocyte cultures. The titer of these culture supernatants was determined by end-point titration as 1-5 [formula]10^6 infectious units/ml. After 30 minutes' incubation at 37° C., the infected lymphocytes were removed by centrifugation and taken up in an equal volume of medium. From this cell suspension, 0.6 ml aliquots were transferred into all wells of the test plate. The mixtures were incubated for 3 days at 37° C.
The infected cell cultures were examined under the microscope for the presence of giant cells, which indicate active virus multiplication in the culture. The lowest concentration of preparation where no giant cells were observed was determined as inhibitory concentration against HIV. As a control, the supernatants from the culture plates were tested for the presence of HIV antigen with the aid of an HIV antigen test following the manufacturer's instructions (Organon).

Compound | MIC
C[C@H]1C(=O)Nc2ccc(Cl)cc2N1C(=O)OCc1ccccc1 [Example III, (3S)-4-N-(Benzyloxycarbonyl)-6-chloro-3-methyl-3,4-di-hydroquinoxalin-2(1H)-one] | 0.8 µg/mL (≈ 2.42 µM)
CC(C)=CCN1c2cc(Cl)ccc2NC(=O)[C@H]1C [VI-B, (3R)-6-Chloro-3-methyl-4-N-(3-methyl-2-buten-1-yl)-3,4-dihydroquinoxalin-2(1H)-one] | 20 µg/mL (≈ 75.5 µM)
CC(C)=CCN1c2ccccc2NC(=O)C1(C)C [Example XX, 3,3-Dimethyl-4-N-(3-methyl-2-buten-1-yl)-3,4-dihydroquinoxalin-2(1H)-one] | < 4 µg/mL

Same assay, conditions: lowest concentration where no giant cells were observed; HIV-infected lymphocytes from donor blood, 3 days at 37° C.

Compound | T-cell culture assay MIC
CC1C(=O)Nc2ccc(Cl)cc2N1Cc1ccc(Br)cc1 (stereo not shown) [Example 10-14] | <0.8 µg/mL
CC=CCOC(=O)N1c2cc(Cl)ccc2NC(=O)C1C (stereo not shown) [Example 11-1] | <0.8 µg/mL
C=C(C)OC(=O)N1c2cc(Cl)ccc2NC(=S)C1CSC (stereo not shown) [Example 7-23] | <0.01 µg/mL
CC(C)OC(=O)N1c2cc(Cl)ccc2NC(=O)C1(C)C [Example 6-50] | <0.01 µg/mL
CC(C)CCN1c2cc(Cl)ccc2NC(=O)C1C (stereo not shown) [Example 10-5] | <0.8 µg/mL
CCC1C(=O)Nc2ccc(Cl)cc2N1CC=C(C)C (stereo not shown) [Example 3-29] | <0.4 µg/mL
CCC1(CC)C(=O)Nc2cc(C)ccc2N1CC=C(C)C [Example 6-20] | <0.8 µg/mL
C=C(C)OC(=O)N1c2cc(Cl)ccc2NC(=O)C1CCSC (stereo not shown) [Example 3-44] | <0.8 µg/mL
CC(C)=CCN1c2ccc(F)cc2NC(=O)C1(C)C [Example 6-22] | >0.8 µg/mL
C=CCOC(=O)N1c2cc(Cl)ccc2NC(=O)C1C(C)CC (stereo not shown) [Example 3-80] | 0.4 µg/mL
C=C(C)OC(=O)N1c2ccc(Oc3ccccc3)cc2NC(=O)C1(C)C [Example 6-39] | 0.4 µg/mL
CC(C)COC(=O)N1c2cc(Cl)ccc2NC(=O)C1C (stereo not shown) [Example 3-26] | 0.4 µg/mL
CC#CCOC(=O)N1c2cc(Cl)ccc2NC(=O)C1C (stereo not shown) [Example 11-4] | 0.8 µg/mL
C=C(C)OC(=O)N1c2ccc(Oc3ccccc3)cc2NC(=O)C1C (stereo not shown) [Example 3-73] | >0.4 µg/mL
C#CCOC(=O)N1c2cc(Cl)ccc2NC(=O)C1C (stereo not shown) [Example 11-3] | <0.8 µg/mL
CC1C(=O)Nc2ccc(Cl)cc2N1Cc1ccccc1 (stereo not shown) [Example 3-21] | 0.16 µg/mL
CC(C)=CCN1c2ccc(Cl)cc2NC(=O)C1C (stereo not shown) [Example 3-53] | >0.8 µg/mL
C=C(C)OC(=O)N1c2ccc(Cl)cc2NC(=O)C1CCSC (stereo not shown) [Example 3-62] | <4.0 µg/mL
C=C(C)OC(=O)N1c2ccc(F)cc2NC(=O)C1(C)C [Example 6-32] | <0.08 µg/mL
CC(C)=CCN1c2cc(F)ccc2NC(=O)C1C (stereo not shown) [Example 3-67] | <0.8 µg/mL
C=C(C)OC(=O)N1c2ccc(OCC)cc2NC(=O)C1(C)C [Example 6-33] | >0.8 µg/mL
C=C(C)OC(=O)N1c2cc(C)c(C)cc2NC(=O)C1(C)C [Example 6-36] | <0.8 µg/mL
C=CCOC(=O)N1c2cc(Cl)ccc2NC(=O)C1CC(C)C (stereo not shown) [Example 3-48] | <0.8 µg/mL
CC(C)=CCN1c2c(Cl)cccc2NC(=O)C1C (stereo not shown) [Example 3-52] | >0.8 µg/mL
CCCC(=O)N1c2cc(Cl)ccc2NC(=O)C1C (stereo not shown) [Example 3-88] | 0.8 µg/mL
C=C(C)OC(=O)N1c2ccc(F)cc2NC(=O)C1C (stereo not shown) [Example 3-66] | >0.08 µg/mL
CC(C)=CCN1c2ccc(F)cc2NC(=O)C1C (stereo not shown) [Example 3-64] | >0.8 µg/mL
C=C(C)OC(=O)N1c2cc(OCCOC)ccc2NC(=O)C1CC (stereo not shown) [Example 3-33] | 0.4 µg/mL
CCCCC(=O)N1c2cc(Cl)ccc2NC(=O)C1C (stereo not shown) [Example 3-87] | >0.8 µg/mL
CC1C(=O)Nc2ccc(Cl)cc2N1C1CCC1 (stereo not shown) [Example 10-4] | 0.4 µg/mL

Target: T1, HIV reverse transcriptase (RT) (Human immunodeficiency virus type 1 group M subtype B, UniProt P03366)
T1 construct: The enzyme RT (from HIV cloned in E. coli); purchased HT-Biotechnology Ltd, Cambridge, UK; host or cells: E. coli
Assay: Assay for HIV reverse transcriptase inhibition (scintillation proximity assay)
Format: biochemical
Details: RT from HIV cloned in E. coli; SPA, 60 minutes (37° C.)
Procedure: Assay of the Substances for HIV Reverse Transcriptase Inhibition
The activity of reverse transcriptase (RT) was determined with the aid of a scintillation proximity assay (SPA).
The reagent kit for the RT-SPA was obtained from Amersham/Buchler (Braunschweig).
The enzyme RT (from HIV cloned in E. coli) originated from HT-Biotechnology Ltd, Cambridge, UK.
The assay was carried out using the manufacturer's (Amersham) protocol manual, with the following modifications: bovine serum albumin was added to the assay buffer to give an end concentration of 0.5 mg/ml the assay was carried out in Eppendorf reaction vessels, using 100 μl volume per batch the manufacturer's RT concentrate (5000 U/ml) was diluted in Tris-HCl buffer 20 mM; pH 7.2; 30% of glycerol, to an activity of 15 U per ml the incubation time for the mixtures was 60 minutes (37° C.) after stopping the reaction and “developing” with the bead suspension, 130 μl of mixture were transferred to 4.5 ml of Tris-HCl buffer, 10 mM; pH 7.4; 0.15 M NaCl, and the tritium activity was measured by means of a [formula]-counter.
For a pre-assay for inhibitory activity, the substances were dissolved in DMSO (stock solution c=1 mg/ml), and tested as a 10^−1, 10^−2, 10^−3, etc., dilution in DMSO.
To determine IC50 values, the inhibitor stock solutions were diluted further in Tris-HCl buffer, 50 mM, pH 8, and tested in suitable concentrations.
The concentration corresponding to a 50% enzyme inhibition was determined from a plot of RT activity versus log Clnh.

Compound | Reverse Transcriptase Assay IC50
C=C(C)OC(=O)N1c2cc(Cl)ccc2NC(=S)C1CSC (stereo not shown) [Example 7-23] | 0.01 to 0.1 µg/mL
C=CCSC(=O)N1c2cc(Cl)ccc2NC(=O)C1C (stereo not shown) [Example 11-6] | 0.1 to 1 µg/mL
C=C(C)OC(=O)N1c2cc(Cl)ccc2NC(=O)C1C(C)C (stereo not shown) [Example 3-37] | 0.1 to 1 µg/mL
CC(C)OC(=O)N1c2cc(Cl)ccc2NC(=O)C1(C)C [Example 6-50] | 0.01 to 0.1 µg/mL
C=CCOC(=O)N1c2cc(Cl)ccc2NC(=S)C1CC (stereo not shown) [Example 7-15] | 0.01 to 0.1 µg/mL
CCC1C(=O)Nc2ccc(Cl)cc2N1CC=C(C)C (stereo not shown) [Example 3-29] | 0.1 to 1 µg/mL
C=C(C)COC(=O)N1c2cc(Cl)ccc2NC(=O)C1C (stereo not shown) [Example 11-7] | approx. 1 μg/ml
CC1C(=O)Nc2ccc(Cl)cc2N1Cc1ccsc1 (stereo not shown) [Example 10-34] | 0.1 to 1 µg/mL
CSCCOC(=O)N1c2cc(Cl)ccc2NC(=O)C1C (stereo not shown) [Example 11-13] | approx. 1 μg/ml
C=C(C)OC(=O)N1c2cc(OC)ccc2NC(=O)C1CSC (stereo not shown) [Example 3-128] | 0.01 to 0.1 µg/mL
C=CCOC(=O)N1c2cc(Cl)ccc2NC(=O)C1CCC (stereo not shown) [Example 3-35] | 0.1 to 1 µg/mL
CSCC1C(=S)Nc2ccc(Cl)cc2N1C(=O)OC(C)C (stereo not shown) [Example 7-28] | <0.01 µg/mL
C=C(C)OC(=O)N1c2cc(Cl)ccc2NC(=O)C1CCC (stereo not shown) [Example 3-34] | 0.1 to 1 µg/mL
C=C(C)OC(=O)N1c2ccc(Cl)cc2NC(=O)C1(C)C [Example 6-9] | approx. 1 μg/ml
C=C(C)OC(=O)N1c2cc(OC)ccc2NC(=S)C1CSC (stereo not shown) [Example 7-30] | <0.01 µg/mL
CC1C(=S)Nc2ccc(Cl)cc2N1Cc1cccnc1 (stereo not shown) [Example 7-20] | 0.1 to 1 µg/mL
C=CCOC(=O)N1c2cc(Cl)ccc2NC(=S)C1CCC (stereo not shown) [Example 7-18] | 0.01 to 0.1 µg/mL
C=C(C)OC(=O)N1c2cc(Cl)ccc2NC(=S)C1CCC (stereo not shown) [Example 7-17] | 0.01 to 0.1 µg/mL
COc1ccc2c(c1)N(C(=O)OC(C)C)C(CSC)C(=S)N2 (stereo not shown) [Example 7-31] | <0.01 µg/mL
CC1C(=S)Nc2ccc(Cl)cc2N1Cc1ccccn1 (stereo not shown) [Example 7-19] | 0.01 to 0.1 µg/mL
CCCOC(=O)N1c2cc(Cl)ccc2NC(=S)C1(C)C [Example 7-25] | <0.01 µg/mL
CSCC1C(=O)Nc2ccc(Cl)cc2N1C(=O)OC(C)C (stereo not shown) [Example 3-127] | 0.01 to 0.1 µg/mL
CCOC(=O)N1c2cc(Cl)ccc2NC(=S)C1(C)C [Example 7-24] | <0.01 µg/mL
CC1C(=O)Nc2ccc(Cl)cc2N1C(=O)SCc1ccccc1 (stereo not shown) [Example 11-5] | 0.1 to 1 µg/mL
COc1ccc2c(c1)N(C(=O)OC(C)C)C(CSC)C(=O)N2 (stereo not shown) [Example 3-129] | 0.01 to 0.1 µg/mL
C=C(C)OC(=O)N1c2cc(Cl)ccc2NC(=O)C1(C)C [Example 6-8] | 0.1 to 1 µg/mL
CCC1C(=S)Nc2ccc(Cl)cc2N1Cc1ccccn1 (stereo not shown) [Example 7-26] | 0.01 to 0.1 µg/mL
CSCC1C(=S)Nc2ccc(Cl)cc2N1Cc1ccccn1 (stereo not shown) [Example 7-29] | 0.01 to 0.1 µg/mL
